The values that follow come from paper PMC3845832 (Clinical cancer research : an official journal of the …, 2013).

The Vd is the apparent volume that relates the amount in the body to the concentration in plasma or blood. High values mean wide distribution into tissue, low ones little distribution into tissue. The term clearance denotes the rate of elimination divided by the concentration.

The nature of data set [1]: Dinaciclib clearance pathways. Particulars: unpublished data.
The subject of data set [2] is CLL patients. To be noted: cited from earlier work.
The next data set relates to UGT1A9. Particulars: in vitro; cited from earlier work.
For another data set, the system named is UGT1A1 or UGT1A4. Particulars: in vitro; cited from earlier work.
Another data set can be described thus: clinical. To be noted: human, in vivo.
The test system of data set [3] is CLL patients. The experiment in a line: Tumor lysis syndrome. Type of data set: in vivo, human.
The subject of data set [4] is CLL patients. Particulars: human, in vivo.
The test system of another data set is refractory CLL patients. To be noted: pharmacokinetically guided dosing, cited from earlier work.
The subject of data set [5] is CLL patients. Description: Population PK-PD logistic regression model of TLS probability in Cycle 1. To be noted: linear function, day 1 or 8; p<0.01 for significance.

Read-outs that look alike come from different tables or passages of the source.

As to `CCc1cnn2c(NCc3ccc[n+]([O-])c3)cc(N3CCCC[C@H]3CCO)nc12` [dinaciclib], in data set [1], the “Role of glucuronidation in clearance” value is on record as “clearly important”. In addition, the “TLS in treated CLL patients” value with CLL patients [2] was “observed”.
Consider `CN1CC[C@H](c2c(O[C@@H]3O[C@H](C(=O)O)[C@@H](O)[C@H](O)[C@H]3O)cc(O)c3c(=O)cc(-c4ccccc4Cl)oc23)[C@H](O)C1` [Flavo-7-G, 7-O-β-glucopyranuronosyl-flavopiridol], for which, in the data set with UGT1A9, the “Share of glucuronidation product” value is reported as 98.5%.
With `CN1CCC(c2c(O)cc(O[C@@H]3O[C@H](C(=O)O)[C@@H](O)[C@H](O)[C@H]3O)c3c(=O)cc(-c4ccccc4Cl)oc23)C(O)C1` (stereo partly drawn) [Flavo-5-G, 5-O-β-glucopyranuronosyl-flavopiridol], in the data set with UGT1A1 or UGT1A4, the “Share of glucuronidation product” value is recorded as “minor glucuronidation product”.
Regarding `CN1CC[C@H](c2c(O)cc(O)c3c(=O)cc(-c4ccccc4Cl)oc23)[C@H](O)C1` [flavopiridol], the “Lower CL in females compared to males” value in the data set “clinical” (both) is recorded as 12.3%. This compound also showed a Vd in the data set “clinical” of 75.8 L. This compound also gave a clearance in “clinical” (iv) of 568 mL/min. Besides, the “Patients who had TLS in the first cycle” value with CLL patients [3] (111 patients of phase I and II studies) worked out at 43%. For the same compound, in the data set on CLL patients [3] (Day 1, Cycle 1), the “Number of patients having TLS” value worked out at 25. In addition, the “Exposure (Cmax or AUC) as predictor of TLS in the model” value in the data set with CLL patients [4] is “did not improve the model”. The “Patients in whom TLS (dose-limiting toxicity) was observed” value in the data set with CLL patients [2] (two trials, pharmacokinetically guided dosing regimen) is 53 out of 116. For the same compound, the “Patients achieving objective responses” value in the data set with refractory CLL patients (phase I trial) is on record as 40%; in the data set with refractory CLL patients (phase II trial), 53%.
With flavopiridol glucuronide [flavo-G], in “clinical”, the “AUC, median value” worked out at 13600 ng·h/mL and the “AUC, range” value is 3210 to 141000 ng·h/mL. The “Exposure (Cmax or AUC) as predictor of TLS in the model” value with CLL patients [5] is on record as “significant decrease in OFV”.
